Patent US5994356A, “Carboxylic acid derivatives, medicaments comprising these compounds, their use and processes for their production” (priority 1996, dated 1999)
Structures can show the parent of a compound that is named as a salt.

Legend:
human platelets = assay: Inhibition of the binding of ^3 H-BIBU 52 to human platelets (fibrinogen binding test); conditions: human platelets in plasma; ^3 H-BIBU 52 5 nM; room temperature, 20 minutes
Experimental: 1. Inhibition of the binding of ^3 H-BIBU 52 to Human Platelets
The free and bound ligand is separated by centrifugation and determined quantitatively by scintillation counting. From the measurements, the inhibition of ^3 H-BIBU 52 binding by the test substance is determined.
To do this, donor blood is taken from an antecubital vein and anticoagulated with trisodium citrate (final concentration 13 mM). The blood is centrifuged at 170×g for 10 minutes and the supernatant platelet-rich plasma (PRP) is removed. The residual blood is rapidly centrifuged once more to obtain plasma. The PRP is diluted 1:10 with autologous plasma. 750 μl are incubated with […] of physiological saline solution, 100 μl of test substance solution, 50 μl of ^14 C-sucrose (3700 Bq) and 50 μl of ^3 H-BIBU 52 (final concentration: 5 nM) at room temperature for 20 minutes. To measure the non-specific binding, instead of the test substance, 100 μl of BIBU 52 (final concentration: 30 μM) is employed. The samples are centrifuged at 10,000×g for 20 seconds and the supernatant is removed. 100 μl thereof are measured to determine the free ligand. The pellet is dissolved in 500 μl of 0.2N NaOH, and 450 μl are mixed with 2 ml of scintillator and 25 μl of 5N HCl and measured. The residual plasma still remaining in the pellet is determined from the ^14 C content, the bound ligand from the ^3 H measurement.

platelet aggregation = assay: Antithrombotic action: collagen-induced platelet aggregation in platelet-rich plasma (Born and Cross); assay type: cell-based; conditions: Homo sapiens, 10 min, platelet-rich plasma of healthy subjects, incubated 10 minutes at 37° C., 50% change in optical density, read-out: Inhibition of platelet aggregation EC50
Experimental: 2. Antithrombotic Action Methodology Platelet aggregation is measured according to the method of Born and Cross (J. Physiol. 170, 397 (1964)) in platelet-rich plasma of healthy subjects. To inhibit clotting, the blood is treated with sodium citrate 3.14% in the volume ratio 1:10. Collagen-induced Aggregation The course of the decrease in the optical density of the platelet suspension is measured photometrically and recorded after addition of the aggregation-inducing substance. From the angle of inclination of the density curve, the aggregation rate is deduced. The point on the curve at which the greatest light transmission is present serves for the calculation of the optical density. The amount of collagen is chosen to be as low as possible, but of course such that an irreversibly running reaction curve results. Commercially available collagen from Hormonchemie, Munich is used. Before the addition of collagen, the plasma is incubated at 37° C. with the substance for 10 minutes in each case. From the measured values obtained, an EC50 which relates to a 50% change in the optical density in the sense of an inhibition of aggregation is determined graphically.

[1] = Plasma levels in Rhesus monkeys after oral administration; assay type: in vivo; conditions: 1 mg/kg

Row | Compound | period of high plasma levels [1] | IC50 (human platelets) | EC50 (platelet aggregation)
1 | O=C(O)COc1ccc(N2CCN(CCC3CCNCC3)CC2=O)cc1 [1(1), 1-(4-Carboxymethyloxyphenyl)-4-[2-(piperidin-4-yl)ethyl]piperazin-2-onedihydrochloride] |  | 360 nM | 370 nM
2 | O=C(O)COc1ccc(N2CCN(CCC3CCNCC3)CC2)cc1OCC(=O)O [1(3), 1-[3,4-Di(carboxymethyloxy)phenyl]-4-[2-(piperidin-4-yl)ethyl]piperazine d ihydrochloride] |  | 47 nM | 110 nM
3 | CC1CN(CCC2CCNCC2)CCN1c1ccc(OCC(=O)O)cc1 (stereo not drawn) [1(7), 1-(4-Carboxymethyloxyphenyl)-2-methyl-4-[2-(piperidin-4-yl)ethyl]piperazine dihydrochloride] |  | 260 nM | 240 nM
4 | CN(CC1CCNCC1)[C@H]1CC[C@H](c2ccc(OCC(=O)O)cc2)CC1 [1(22), trans-1-(4-Carboxymethyloxyphenyl)-4-[(piperidin-4-yl)-N-methylmethylamino]cyclohexane dihydrochloride] |  | 260 nM | 370 nM
5 | COC(=O)COc1ccc(N2CCN(CCC3CCNCC3)CC2C)cc1.Cl.Cl (stereo not drawn) [2(4), 1-(4-Methoxycarbonylmethyloxyphenyl)-2-methyl-4-[2-(piperidin-4-yl)ethyl]piperazine dihydrochloride] | more than 8 hours |  | 
6 | O=C(O)CO[C@H]1CC[C@H](N2CCN(CCC3CCNCC3)CC2=O)CC1 [7(1), 1-(trans-4-Carboxymethyloxycyclohexyl)-4-[2-(piperidin-4-yl)ethyl]piperazin-2-one] |  | 200 nM | 250 nM
7 | O=C(O)C(Oc1ccc(N2CCN(CCC3CCNCC3)CC2)cc1)c1ccccc1 (stereo not drawn) [7(6), 1-[4-(1-Carboxybenzyloxy)phenyl]-4-[2-(piperidin-4-yl)ethyl]piperazine dihydrochloride] |  | 150 nM | 
8 | O=C(O)COc1ccc(N2CCN(CCC3CCNCC3)CC2)cc1 [Example 1, 1-(4-Carboxymethyloxyphenyl)-4-[2-(piperidin-4-yl)ethyl]piperazine dihydrochloride] |  | 150 nM | 120 nM
9 | CCOC(=O)COc1ccc(N2CCN(CCC3CCNCC3)CC2)cc1OCC(=O)OCC.Cl.Cl [Example 9, 1-[3,4-Di(ethoxycarbonylmethyloxy)phenyl]-4-[2-(piperidin-4-yl)ethyl]piperazine dihydrochloride] | more than 8 hours |  | 

Second part, led by results:

Row | period of high plasma levels [1] | Compound | IC50 (human platelets) | EC50 (platelet aggregation)
10 | more than 8 hours | CC(C)COC(=O)COc1ccc(N2CCN(CCC3CCNCC3)CC2)cc1OCC(=O)OCC(C)C [9(1), 1-[3,4-Di(isobutyloxycarbonylmethyloxy)phenyl]-4-[2-piperidin-4-yl)ethyl]piperazine dihydrochloride] |  | 
11 | more than 8 hours | Cl.Cl.O=C(COc1ccc(N2CCN(CCC3CCNCC3)CC2)cc1OCC(=O)OC1CCCCC1)OC1CCCCC1 [9(2), 1-[3,4-Di(cyclohexyloxycarbonylmethyloxy)phenyl]4-[2-(piperidin-4-yl)ethyl]piperazine dihydrochloride] |  | 
12 | more than 8 hours | COC(=O)COc1ccc(N2CCN(CCC3CCNCC3)CC2)cc1.Cl.Cl [Example 2, 1-(4-Methoxycarbonylmethyloxyphenyl)-4-[2-(piperidin-4-yl)ethyl]piperazine dihydrochloride] |  | 
